# Read-outs that look alike come from different tables or passages of the source.
# Tested on: HRE/Luc/HEK293 cells
# Assay: HRE (Hypoxia Response Element) luciferase assay
# Format: cell-based, human
# Details: for fold induction at 10 µM / fold induction at 100 µM: Homo sapiens; for HRE expression: low concentration of 1 µM
# Protocol: • (a) HRE assay: Confirmation of increased in HRE expression levels by the test substance relative to the vehicle in HRE/Luc/HEK293 cells • * Less than a twofold increase at 100 µM, • ** More than a twofold increase at 100 µM, • *** More than a twofold increase at 10 µM, • **** More than a twofold increase at 1 µM, • Not performed.
# It has been reported that in the brains of AD patients, blood supply is mostly insufficient, resulting in oxygen levels being up to 50% lower than those of normal individuals, leading to increased oxidative stress (ROS) and neuroinflammation. It has also been studied that when the HIF-1α (hypoxia inducible factor-1) factor binds to the HRE (hypoxia response element), it increases VEGF (vascular endothelial growth factor), which promotes the formation of new blood vessels, thereby increasing oxygen levels in the brain and helping to inhibit nerve cell damage.
# A reporter gene containing luciferase, capable of verifying the level of HRE expression, was inserted into HEK-293 human embryonic kidney cells, and HRE/Luc/HEK293 cells were constructed by inserting a plasmid (HRE/Luc) with luciferase attached downstream of the HRE promoter that binds to HIF-1α using lipofectamine (Invitrogen).
# To perform HRE luciferase analysis, HRE/Luc/HEK293 cells were seeded in 96-well culture plates at a cell density of 4 x 10^4 per well in minimal essential medium (MEM) containing 10% fetal bovine serum. After one day, the cell medium was removed and replaced with medium mixed with various concentrations of example compounds. Six hours after compound pretreatment, HRE/Luc/HEK293 cells were cultured under hypoxic conditions (O2 0.1%) for 18 hours. Subsequently, the cells were washed with phosphate buffer, lysed with lysis buffer, and then the luciferase reagent (Promega) for luciferase analysis was added. Afterward, changes in HRE expression levels associated with HIF-1 signaling were evaluated by measuring luminescence using an Infinite200 (Tecan).
# [1] = HEK293, 18 h, Table 2 (Examples 37-74, 52), read-out: HKt-increasing 10uM
# [2] = HEK293, 18 h, Table 2 (Examples 37-74, 52), read-out: HKt-increasing 100uM
# [3] = HEK293, fold increase of HRE expression, hypoxic conditions (O2 0.1%) 18 hours, Table 2, read-out: HRE-increasing 10uM
# [4] = HEK293, fold increase of HRE expression, hypoxic conditions (O2 0.1%) 18 hours, Table 2, read-out: HRE-increasing 100uM
# [5] = HEK293, 18 h, Table 2 (Examples 75-109, 114), read-out: HRE-inceasing 10uM
# [6] = HEK293, 18 h, Table 2 (Examples 75-109, 114), read-out: HRE-inceasing 100uM
Compound,fold induction at 10 µM [1],fold induction at 100 µM [2],fold induction at 10 µM [5],fold induction at 100 µM [6],also measured
"CO[C@H]1CO[C@H](Oc2ccc(Oc3ccc(C(C)C)cc3)cc2)[C@H](O)[C@H]1O [Example 61, (2R,3R,4R,5S)-2-(4-(4-isopropylphenoxy)phenoxy)-5-methoxytetrahydro-2H-pyran-3,4-diol]",1.1,1.3,,,
"Cc1cc(C)cc(Oc2ccc(O[C@H]3OC[C@H](O)[C@H](O)[C@H]3O)cc2)c1 [Example 34, (2R,3R,4S,5S)-2-(4-(3,5-dimethylphenoxy)phenoxy)tetrahydro-2H-pyran-3,4,5-triol]",,,,,fold induction at 10 µM [3]: 1.1; fold induction at 100 µM [4]: 1
"COc1ccc(Cc2ccc(O[C@H]3OC[C@H](O)[C@H](O)[C@H]3O)cc2F)cc1 [Example 47, (2R,3R,4S,5S)-2-(3-fluoro-4-(4-methoxybenzyl)phenoxy)tetrahydro-2H-pyran-3,4,5-trio]",1,1.2,,,
"Cc1ccc2c(ccn2-c2ccc(O[C@H]3OC[C@H](O)[C@H](O)[C@H]3O)cc2)c1 [Example 90, (2R,3R,4S,5S)-2-(4-(5-methyl-1H-indol-1-yl)phenoxy)tetrahydro-2H-pyran-3,4,5-triol]",,,1.7,2.4,
"COc1ccc(-c2ccc(O[C@H]3OC[C@H](O)[C@H](O)[C@H]3O)cc2)cc1 [Example 84, (2R,3R,4S,5S)-2-((4'-methoxy-[1,1'-biphenyl]-4-yl)oxy)tetrahydro-2H-pyran-3,4,5-triol]",,,2.5,3.5,
"CC(C)c1ccc(Cc2ccc(S[C@@H]3OC[C@H](O)[C@H](O)[C@H]3O)cc2)cc1 [Example 28, (2S,3R,4S,5S)-2-((4-(4-isopropylbenzyl)phenyl)thio) tetrahydro-2H-pyran-3,4,5-triol]",,,,,fold induction at 10 µM [3]: 1.8
"O[C@@H]1[C@@H](O)[C@H](Oc2ccc(Cc3cccnc3)cc2)OC[C@@H]1O [Example 24, (2S,3R,4S,5S)-2-(4-(pyridin-3-ylmethyl)phenoxy)tetrahydro-2H-pyran-3,4,5-triol]",,,,,fold induction at 10 µM [3]: 1.1; fold induction at 100 µM [4]: 1.1
"Cc1ccc2oc(-c3ccc(O[C@@H]4OC[C@H](O)[C@H](O)[C@H]4O)cc3)nc2c1 [Example 108, (2S,3R,4S,5S)-2-(4-(5-methylbenzo[d]oxazol-2-yl)phenoxy)tetrahydro-2H-pyran-3,4,5-triol]",,,3.6,1.6,HRE expression: more than threefold
"COc1ccc2oc(-c3cccc(O[C@H]4OC[C@H](O)[C@H](O)[C@H]4O)c3)nc2c1 [Example 107, (2R,3R,4S,5S)-2-(3-(5-methoxybenzo[d]oxazol-2-yl)phenoxy)tetrahydro-2H-pyran-3,4,5-triol]",,,3.1,4.2,HRE expression: more than threefold
"COc1ccc(C(c2ccc(O[C@H]3OC[C@H](O)[C@H](O)[C@H]3O)cc2)(C(F)(F)F)C(F)(F)F)cc1 [Example 32, (2R,3R,4S,5S)-2-(4-(1,1,1,3,3,3-hexafluoro-2-(4-methoxyphenyl)propan-2-yl)phenoxy)tetrahydro-2H-pyran-3,4,5-triol]",,,,,fold induction at 10 µM [3]: 1.3; fold induction at 100 µM [4]: 1.8
"COc1ccc2oc(-c3ccc(O[C@@H]4OC[C@@H](O)[C@H](O)[C@H]4O)cc3)nc2c1 [Example 94, (2S,3R,4S,5R)-2-(4-(5-methoxybenzo[d]oxazol-2-yl)phenoxy)tetrahydro-2H-pyran-3,4,5-triol]",,,3,2.2,HRE expression: more than threefold
"COc1ccc2oc(-c3cccc(O[C@@H]4OC[C@H](O)[C@H](O)[C@H]4O)c3)nc2c1 [Example 106, (2S,3R,4S,5S)-2-(3-(5-methoxybenzo[d]oxazol-2-yl)phenoxy)tetrahydro-2H-pyran-3,4,5-triol]",,,3.4,1.7,HRE expression: more than threefold
"CN(C)c1ccc(Cc2ccc(O[C@@H]3OC[C@H](O)[C@H](O)[C@H]3O)cc2)cc1 [Example 12, (2S,3R,4S,5S)-2-(4-(4-(dimethylamino)benzyl)phenoxy) tetrahydro-2H-pyran 3,4,5-triol]",,,,,fold induction at 10 µM [3]: 1.2; fold induction at 100 µM [4]: 1.6; HRE assay (increase in HRE expression levels by the test substance relative to the vehicle in HRE/Luc/HEK293 cells): •
"Cc1ccc2oc(-c3ccc(O[C@@H]4OC[C@H](O)[C@H](O)[C@H]4O)c(Cl)c3)nc2c1 [Example 100, (2S,3R,4S,5S)-2-(2-chloro-4-(5-methylbenzo[d]oxazol-2-yl)phenoxy) tetrahydro-2H-pyran-3,4,5-triol]",,,2.7,2.4,
"CC(C)[C@H]1CC[C@H](Cc2ccc(O[C@H]3OC[C@H](O)[C@H](O)[C@H]3O)cc2)CC1 [Example 74, (2R,3R,4S,5S)-2-(4-(((1R,4R)-4-isopropylcyclohexyl)methyl)phenoxy)tetrahydro-2H-pyran-3,4,5-triol]",1.9,3,,,
"COc1ccc2c(ccn2-c2ccc(O[C@@H]3OC[C@H](O)[C@H](O)[C@H]3O)cc2)c1 [Example 83, (2S,3R,4S,5S)-2-(4-(5-methoxy-1H-indol-1-yl)phenoxy)tetrahydro-2H-pyran-3,4,5-triol]",,,2.2,3.3,
"COc1ccc(Cc2ccc(O[C@H]3OC[C@H](O)[C@H](O)[C@H]3O)cc2Cl)cc1 [Example 38, (2R,3R,4S,5S)-2-(3-chloro-4-(4-methoxybenzyl)phenoxy)tetrahydro-2H-pyran-3,4,5-triol]",1.3,2.2,,,
"O[C@@H]1[C@@H](O)[C@H](Oc2ccc(CN3CCCC3)cc2)OC[C@@H]1O [Example 75, (2S,3R,4S,5S)-2-(4-(pyrrolidin-1-ylmethyl)phenoxy)tetrahydro-2H-pyran-3,4,5-triol]",,,1,1,
"CC(C)c1ccc(Oc2ccc(O[C@H]3OC[C@H](O)[C@H](O)[C@H]3F)cc2)cc1 [Example 63, (3S,4S,5R,6R)-5-fluoro-6-(4-(4-isopropylphenoxy)phenoxy)tetrahydro-2H-pyran-3,4-diol]",2.4,2.3,,,
"COc1cc(Cc2ccc(O[C@H]3OC[C@H](O)[C@H](O)[C@H]3O)cc2)cc(OC)c1OC [Example 18, (2R,3R,4S,5S)-2-(4-(3,4,5-trimethoxybenzyl)phenoxy) tetrahydro-2H-pyran-3,4,5-triol]",,,,,fold induction at 10 µM [3]: 1.2; fold induction at 100 µM [4]: 1.3
"CC(C)c1ccc(Cc2ccc(O[C@H]3OC[C@H](O)[C@H](O)[C@H]3O)cc2Cl)cc1 [Example 40, (2R,3R,4S,5S)-2-(3-chloro-4-(4-isopropylbenzyl)phenoxy)tetrahydro-2H-pyran-3,4,5-triol]",2.6,3.1,,,
"CC(C)c1ccc(Oc2ccc(O[C@H]3OC[C@H](O)[C@H](O)[C@@H]3F)cc2)cc1 [Example 65, (3S,4S,5S,6R)-5-fluoro-6-(4-(4-isopropylphenoxy)phenoxy)tetrahydro-2H-pyran-3,4-diol]",2.6,2.4,,,
"CC(C)c1ccc(Oc2ccc(O[C@H]3OC[C@@H](F)[C@H](O)[C@H]3O)cc2)cc1 [Example 64, (2R,3R,4R,5R)-5-fluoro-2-(4-(4-isopropylphenoxy)phenoxy)tetrahydro-2H-pyran-3,4-diol]",2.4,2.3,,,
"COc1ccc(Cc2ccc(O[C@H]3OC[C@H](O)[C@H](O)[C@H]3O)cc2)cc1Cl [Example 37, (2R,3R,4S,5S)-2-(4-(3-chloro-4-methoxybenzyl)phenoxy)tetrahydro-2H-pyran-3,4,5-triol]",1.1,1.3,,,
"COc1ccc2oc(-c3ccc(O[C@@H]4OC[C@H](O)[C@H](O)[C@H]4O)cc3)nc2c1 [Example 92, (2S,3R,4S,5S)-2-(4-(5-methoxybenzo[d]oxazol-2-yl)phenoxy)tetrahydro-2H-pyran-3,4,5-triol]",,,3,1.6,HRE expression: more than threefold
"CC(C)c1ccc(Oc2ccc(O[C@H]3OC[C@H](O)[C@H](O)[C@H]3O)c(F)c2)cc1 [Example 68, (2R,3R,4S,5S)-2-(2-fluoro-4-(4-isopropylphenoxy)phenoxy)tetrahydro-2H-pyran-3,4,5-triol]",4.3,4.4,,,HRE expression: more than threefold

# Source: patent EP4810508A1, “ARABINOSE DERIVATIVE COMPOUND, AND COMPOSITION COMPRISING SAME FOR PREVENTING OR TREATING DEGENERATIVE BRAIN DISEASES” (Digmbio. Inc., priority 2023, dated 2025)
